Measurements reported in the NIST ThermoML archive (doi:10.1021/acs.jced.5b00662).

Experiment: xn = mol fraction of the nth substance listed
Settings: 100 kPa, Liquid; for speed of sound: Sing-around technique in a fixed-path interferometer; for mass density: Vibrating tube method

CCOCCOCCOCC [diethylene glycol diethyl ether] + O
Settings | mass density [kg/m3] | speed of sound [m/s]
283.15 K, x1 = 0.97 | 918.572 | 1305.3
283.15 K, x1 = 0.9742 | 918.371 | 1304.9
283.15 K, x1 = 0.9778 | 918.271 | 1303.9
283.15 K, x1 = 0.9836 | 917.783 | 1303.6
283.15 K, x1 = 0.9875 | 917.643 | 1304.4
283.15 K, x1 = 0.9911 | 917.567 | 1304.1
288.15 K, x1 = 0.97 | 913.742 | 1284.9
288.15 K, x1 = 0.9742 | 913.543 | 1284.6
288.15 K, x1 = 0.9778 | 913.443 | 1283.6
288.15 K, x1 = 0.9836 | 912.955 | 1283.3
288.15 K, x1 = 0.9875 | 912.82 | 1284
288.15 K, x1 = 0.9911 | 912.74 | 1284
293.15 K, x1 = 0.97 | 908.91 | 1264.8
293.15 K, x1 = 0.9742 | 908.705 | 1264.4
293.15 K, x1 = 0.9778 | 908.61 | 1263.6
293.15 K, x1 = 0.9836 | 908.126 | 1263.2
293.15 K, x1 = 0.9875 | 907.993 | 1263.9
293.15 K, x1 = 0.9911 | 907.914 | 1263.8
298.15 K, x1 = 0.97 | 904.074 | 1244.9
298.15 K, x1 = 0.9742 | 903.873 | 1244.6
298.15 K, x1 = 0.9778 | 903.775 | 1243.7
298.15 K, x1 = 0.9836 | 903.3 | 1243.4
298.15 K, x1 = 0.9875 | 903.166 | 1244.1
298.15 K, x1 = 0.9911 | 903.09 | 1244
303.15 K, x1 = 0.97 | 899.235 | 1225.2
303.15 K, x1 = 0.9742 | 899.035 | 1224.9
303.15 K, x1 = 0.9778 | 898.937 | 1224
303.15 K, x1 = 0.9836 | 898.467 | 1223.6
303.15 K, x1 = 0.9875 | 898.334 | 1224.4
303.15 K, x1 = 0.9911 | 898.256 | 1224.2
308.15 K, x1 = 0.97 | 894.389 | 1205.6
308.15 K, x1 = 0.9742 | 894.189 | 1205.3
308.15 K, x1 = 0.9778 | 894.092 | 1204.6
308.15 K, x1 = 0.9836 | 893.628 | 1204.1
308.15 K, x1 = 0.9875 | 893.496 | 1204.7
308.15 K, x1 = 0.9911 | 893.419 | 1204.6
313.15 K, x1 = 0.97 | 889.537 | 1186.4
313.15 K, x1 = 0.9742 | 889.339 | 1186
313.15 K, x1 = 0.9778 | 889.241 | 1185.3
313.15 K, x1 = 0.9836 | 888.783 | 1184.7
313.15 K, x1 = 0.9875 | 888.652 | 1184.7
313.15 K, x1 = 0.9911 | 888.577 | 1185.3
323.15 K, x1 = 0.97 | 879.812 | 1148.2
323.15 K, x1 = 0.9742 | 879.619 | 1147.7
323.15 K, x1 = 0.9778 | 879.518 | 1147.3
323.15 K, x1 = 0.9836 | 879.074 | 1146.7
323.15 K, x1 = 0.9875 | 878.945 | 1146.3
323.15 K, x1 = 0.9911 | 878.873 | 1146.2
333.15 K, x1 = 0.97 | 870.056 | 1111
333.15 K, x1 = 0.9742 | 869.867 | 1110.4
333.15 K, x1 = 0.9778 | 869.76 | 1110
333.15 K, x1 = 0.9836 | 869.332 | 1109.5
333.15 K, x1 = 0.9875 | 869.203 | 1109.1
333.15 K, x1 = 0.9911 | 869.134 | 1108.9
343.15 K, x1 = 0.97 | 860.264 | 1074.5
343.15 K, x1 = 0.9742 | 860.076 | 1074
343.15 K, x1 = 0.9778 | 859.966 | 1073.7
343.15 K, x1 = 0.9836 | 859.55 | 1073.1
343.15 K, x1 = 0.9875 | 859.411 | 1072.6
343.15 K, x1 = 0.9911 | 859.346 | 1072.7
